# According to ChEMBL document CHEMBL1201862, “PubChem BioAssay data set” (2004):
# Several values for one entry are separate records, joined by “and”; a condition that tells them apart may be missing. Equal values may be shown once. Activity calls are given as the source filed them.
# How the values were obtained:
# [1] = target: Procathepsin L (Homo sapiens, UniProt P07711)
# [2] = target: T1, Aspartyl aminopeptidase (Plasmodium falciparum 3D7, UniProt Q8I2J3)
# T1 sequence (Q8I2J3 whole entry): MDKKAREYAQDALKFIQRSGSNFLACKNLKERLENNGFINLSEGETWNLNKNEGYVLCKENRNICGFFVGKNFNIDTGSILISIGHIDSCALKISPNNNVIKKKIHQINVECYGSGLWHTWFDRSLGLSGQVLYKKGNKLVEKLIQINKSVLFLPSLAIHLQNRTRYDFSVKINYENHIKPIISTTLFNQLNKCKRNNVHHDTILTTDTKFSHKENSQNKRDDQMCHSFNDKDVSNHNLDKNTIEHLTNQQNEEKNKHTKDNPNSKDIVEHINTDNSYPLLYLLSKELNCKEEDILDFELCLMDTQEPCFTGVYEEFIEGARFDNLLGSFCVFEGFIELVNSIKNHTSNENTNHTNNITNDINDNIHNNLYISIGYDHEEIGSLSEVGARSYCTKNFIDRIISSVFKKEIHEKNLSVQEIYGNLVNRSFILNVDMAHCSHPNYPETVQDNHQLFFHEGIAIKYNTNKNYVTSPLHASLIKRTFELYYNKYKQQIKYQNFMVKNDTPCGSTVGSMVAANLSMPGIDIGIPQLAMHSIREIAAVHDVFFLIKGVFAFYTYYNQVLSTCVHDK
# [3] = A cytotoxicity screen of small molecule inhibitors of the PhoP region in Salmonella typhi identified in the primary screen. [Related pubchem assays: 1850, 1864, 1985 ]; type: functional
# [4] = target: Peroxisome proliferator-activated receptor gamma/Nuclear receptor coactivator 1 (Homo sapiens, UniProt P37231); type: functional;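 also: agonist potency as compounds enhance coactivator SRC-1 recruitment to PPARgamma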
# [5] = target: Peroxisome proliferator-activated receptor gamma/Nuclear receptor coactivator 3 (Homo sapiens, UniProt P37231); type: functional;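 also: agonist potency for raising coactivator recruitment to the receptor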
# [6] = target: Peroxisome proliferator-activated receptor gamma/Nuclear receptor coactivator 2 (Homo sapiens, UniProt P37231); type: functional;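 also: agonist potency for raising coactivator recruitment to the receptor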
# [7] = target: Mothers against decapentaplegic homolog 3 (Homo sapiens, UniProt P84022); assay: Smad3 binding inhibitors, lysate ELISA, dose response, cell lysate, secondary confirmation, chemiluminescent ELISA, HEK293 lysate (AID 1058); type: functional
# [8] = target: Luciferin 4-monooxygenase (Photinus pyralis, UniProt P08659); assay: firefly luciferase enzyme inhibitors, dose response, biochemical, luminescence (AID 1891)
# [9] = Luminescence Cell-Based Dose Confirmation HTS to Identify Inhibitors of Platelet Dense Granule Release. [Related pubchem assays: 1663 (Primary HTS), 1678 (Summary of Project)]; type: functional
# [10] = A Cell Based Secondary Assay To Explore Cytotoxicity of Compounds that Sensitize Mycobacterium Tuberculosis to Beta-Lactam Antibiotics.; type: functional
# [11] = target: T2, Induced myeloid leukemia cell differentiation protein Mcl-1 (Homo sapiens, UniProt Q07820); assay: MCL1-BIM BH3 interaction inhibitors, dose response, biochemical, fluorescence polarization, BIM-BH3 peptide, 1536-well (AID 2217)
# [12] = target: T3, Histone-lysine N-methyltransferase NSD2 (Homo sapiens, UniProt O96028); type: biochemical
# T3 sequence (O96028 whole entry): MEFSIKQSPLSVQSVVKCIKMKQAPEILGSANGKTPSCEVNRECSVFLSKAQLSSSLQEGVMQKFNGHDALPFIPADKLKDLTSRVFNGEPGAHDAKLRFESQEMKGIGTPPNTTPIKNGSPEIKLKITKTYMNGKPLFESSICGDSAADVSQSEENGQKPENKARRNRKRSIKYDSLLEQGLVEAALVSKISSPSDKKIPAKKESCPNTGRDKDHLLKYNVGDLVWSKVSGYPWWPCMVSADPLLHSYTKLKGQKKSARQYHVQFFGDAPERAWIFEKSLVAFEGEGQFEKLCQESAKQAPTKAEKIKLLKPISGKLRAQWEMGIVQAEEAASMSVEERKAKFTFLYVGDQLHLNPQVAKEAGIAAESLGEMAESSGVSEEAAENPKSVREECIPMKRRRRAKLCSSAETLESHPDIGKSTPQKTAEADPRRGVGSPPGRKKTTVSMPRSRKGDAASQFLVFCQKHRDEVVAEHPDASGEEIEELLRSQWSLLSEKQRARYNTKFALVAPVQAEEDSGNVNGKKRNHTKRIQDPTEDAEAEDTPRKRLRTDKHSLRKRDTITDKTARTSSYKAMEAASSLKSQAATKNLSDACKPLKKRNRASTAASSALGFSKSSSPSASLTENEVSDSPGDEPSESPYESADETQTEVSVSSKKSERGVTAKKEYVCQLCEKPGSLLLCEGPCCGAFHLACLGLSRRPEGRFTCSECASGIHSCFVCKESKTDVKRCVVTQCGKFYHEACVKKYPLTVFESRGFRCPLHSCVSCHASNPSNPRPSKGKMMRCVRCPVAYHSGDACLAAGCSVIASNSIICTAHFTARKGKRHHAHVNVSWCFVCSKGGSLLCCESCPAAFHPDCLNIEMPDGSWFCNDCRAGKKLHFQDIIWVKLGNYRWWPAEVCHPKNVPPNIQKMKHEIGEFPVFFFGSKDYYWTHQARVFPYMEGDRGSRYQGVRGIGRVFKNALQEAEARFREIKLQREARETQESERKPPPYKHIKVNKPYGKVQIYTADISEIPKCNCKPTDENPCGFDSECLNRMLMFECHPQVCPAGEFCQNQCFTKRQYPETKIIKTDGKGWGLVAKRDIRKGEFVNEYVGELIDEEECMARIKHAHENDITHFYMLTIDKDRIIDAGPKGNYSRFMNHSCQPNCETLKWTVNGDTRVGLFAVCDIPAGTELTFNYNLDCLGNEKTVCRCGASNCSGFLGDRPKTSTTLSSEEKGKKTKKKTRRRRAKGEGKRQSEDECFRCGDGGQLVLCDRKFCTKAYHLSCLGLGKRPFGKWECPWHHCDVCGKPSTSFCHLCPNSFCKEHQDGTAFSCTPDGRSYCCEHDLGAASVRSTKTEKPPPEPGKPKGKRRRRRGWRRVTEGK
# [13] = target: Bifunctional protein GlmU (Mycobacterium tuberculosis, UniProt P9WMN3); assay: Inhibitors of Mycobacterial Glucosamine-1-phosphate acetyl transferase (GlmU). Secondary screen.; design: species or system Mycobacterium tuberculosis H37Rv
# [14] = target: T4, Aminopeptidase N (Plasmodium falciparum FcB1/Columbia, UniProt O96935); assay: P. falciparum M1AAP inhibitors, biochemical, fluorogenic H-Leu-NHMec substrate, 1536-well (AID 1445); design: species or system Plasmodium falciparum 3D7, 3D7
# T4 sequence (O96935 whole entry): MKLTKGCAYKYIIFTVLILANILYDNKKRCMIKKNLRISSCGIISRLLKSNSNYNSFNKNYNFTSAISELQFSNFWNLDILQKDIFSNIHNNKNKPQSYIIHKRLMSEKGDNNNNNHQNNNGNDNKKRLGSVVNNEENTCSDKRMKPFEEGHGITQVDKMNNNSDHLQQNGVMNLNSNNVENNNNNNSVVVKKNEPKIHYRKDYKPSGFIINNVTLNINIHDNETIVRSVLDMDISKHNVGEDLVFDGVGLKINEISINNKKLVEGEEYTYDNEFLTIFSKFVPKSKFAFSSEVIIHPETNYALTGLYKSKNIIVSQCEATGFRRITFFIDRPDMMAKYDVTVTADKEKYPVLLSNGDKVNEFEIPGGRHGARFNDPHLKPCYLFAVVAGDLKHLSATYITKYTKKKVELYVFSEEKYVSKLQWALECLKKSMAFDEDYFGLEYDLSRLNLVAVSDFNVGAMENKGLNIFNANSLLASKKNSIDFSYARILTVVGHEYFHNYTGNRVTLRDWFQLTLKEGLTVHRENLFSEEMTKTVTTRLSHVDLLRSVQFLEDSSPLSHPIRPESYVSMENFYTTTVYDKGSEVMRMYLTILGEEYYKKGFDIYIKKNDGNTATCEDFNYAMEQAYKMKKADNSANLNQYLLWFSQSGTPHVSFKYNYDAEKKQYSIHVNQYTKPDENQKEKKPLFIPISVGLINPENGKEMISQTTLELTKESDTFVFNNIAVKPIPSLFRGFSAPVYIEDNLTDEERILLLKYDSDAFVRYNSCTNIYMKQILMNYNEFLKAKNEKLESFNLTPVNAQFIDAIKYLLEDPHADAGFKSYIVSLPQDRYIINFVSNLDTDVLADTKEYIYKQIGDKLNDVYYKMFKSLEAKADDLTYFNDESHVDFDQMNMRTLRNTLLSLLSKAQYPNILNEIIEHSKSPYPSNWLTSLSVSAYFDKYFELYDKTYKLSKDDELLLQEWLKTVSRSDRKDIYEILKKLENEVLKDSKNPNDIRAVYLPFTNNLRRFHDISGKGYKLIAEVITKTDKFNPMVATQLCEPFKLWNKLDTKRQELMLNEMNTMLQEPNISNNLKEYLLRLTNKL
# [15] = target: T5, Caspase-6 (Homo sapiens, UniProt P55212); assay: human caspase-6 inhibitors, dose response, biochemical, VEID-R110 fluorescence, cherry-pick (AID 720632)
# T5 sequence (P55212 whole entry): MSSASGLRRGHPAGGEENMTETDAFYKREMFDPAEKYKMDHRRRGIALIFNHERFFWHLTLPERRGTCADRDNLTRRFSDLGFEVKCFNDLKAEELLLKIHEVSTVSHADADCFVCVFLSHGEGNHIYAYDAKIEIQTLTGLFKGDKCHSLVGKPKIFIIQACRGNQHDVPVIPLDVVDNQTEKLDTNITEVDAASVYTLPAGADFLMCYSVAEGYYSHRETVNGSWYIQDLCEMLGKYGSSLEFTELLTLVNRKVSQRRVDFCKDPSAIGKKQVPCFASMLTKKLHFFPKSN
# [16] = target: DNA (cytosine-5)-methyltransferase 1 (Homo sapiens, UniProt P26358); assay: DNMT1 methyltransferase inhibitors, confirmation, biochemical, fluorescent molecular beacon (AID 602386); type: functional
# [17] = target: Bcl-2-like protein 1 (Homo sapiens, UniProt Q07817); assay: BCL-XL inhibitors, dose response, selectivity assay for MCL1 inhibitor project, biochemical, fluorescence polarization, 1536-well (AID 2218)
# [18] = target: T2, Induced myeloid leukemia cell differentiation protein Mcl-1; type: functional
# Sequence of Mothers against decapentaplegic homolog 3 (P84022 whole entry): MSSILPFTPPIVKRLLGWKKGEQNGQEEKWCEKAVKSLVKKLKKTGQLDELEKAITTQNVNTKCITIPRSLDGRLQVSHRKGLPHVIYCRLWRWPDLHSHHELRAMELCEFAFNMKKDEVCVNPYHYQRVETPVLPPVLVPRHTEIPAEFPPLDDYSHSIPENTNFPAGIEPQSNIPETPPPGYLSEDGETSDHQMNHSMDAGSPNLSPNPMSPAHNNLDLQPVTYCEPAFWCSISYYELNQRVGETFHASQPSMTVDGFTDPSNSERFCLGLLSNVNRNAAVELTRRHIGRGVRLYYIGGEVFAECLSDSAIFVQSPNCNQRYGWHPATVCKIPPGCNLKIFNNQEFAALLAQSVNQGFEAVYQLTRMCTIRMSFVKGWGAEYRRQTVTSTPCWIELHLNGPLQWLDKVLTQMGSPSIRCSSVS
# Sequence of Procathepsin L (P07711 whole entry): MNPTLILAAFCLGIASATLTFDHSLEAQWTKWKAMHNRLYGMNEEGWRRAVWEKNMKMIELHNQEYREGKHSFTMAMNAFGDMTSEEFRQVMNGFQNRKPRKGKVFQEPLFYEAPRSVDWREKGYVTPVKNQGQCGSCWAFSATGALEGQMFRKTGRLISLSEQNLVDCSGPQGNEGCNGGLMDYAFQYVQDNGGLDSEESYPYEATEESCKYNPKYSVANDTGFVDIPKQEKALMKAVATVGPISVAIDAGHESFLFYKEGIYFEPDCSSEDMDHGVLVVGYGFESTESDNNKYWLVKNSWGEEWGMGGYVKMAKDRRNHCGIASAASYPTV
# Sequence of Peroxisome proliferator-activated receptor gamma/Nuclear receptor coactivator 1 (P37231 whole entry): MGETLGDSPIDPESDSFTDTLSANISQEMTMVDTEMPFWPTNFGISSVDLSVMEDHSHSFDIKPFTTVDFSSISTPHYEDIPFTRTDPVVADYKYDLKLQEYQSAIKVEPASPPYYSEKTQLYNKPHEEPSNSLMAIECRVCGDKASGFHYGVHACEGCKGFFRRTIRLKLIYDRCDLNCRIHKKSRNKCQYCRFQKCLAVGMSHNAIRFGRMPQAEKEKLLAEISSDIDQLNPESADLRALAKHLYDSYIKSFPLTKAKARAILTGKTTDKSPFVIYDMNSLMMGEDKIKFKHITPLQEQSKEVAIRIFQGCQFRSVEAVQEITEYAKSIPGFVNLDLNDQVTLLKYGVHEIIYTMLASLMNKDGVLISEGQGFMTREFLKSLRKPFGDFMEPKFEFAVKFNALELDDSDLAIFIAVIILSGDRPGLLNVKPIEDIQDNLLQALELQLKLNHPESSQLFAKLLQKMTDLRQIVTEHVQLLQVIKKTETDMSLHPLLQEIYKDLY
# Sequence of Peroxisome proliferator-activated receptor gamma/Nuclear receptor coactivator 1 (Q15788 whole entry, further chain): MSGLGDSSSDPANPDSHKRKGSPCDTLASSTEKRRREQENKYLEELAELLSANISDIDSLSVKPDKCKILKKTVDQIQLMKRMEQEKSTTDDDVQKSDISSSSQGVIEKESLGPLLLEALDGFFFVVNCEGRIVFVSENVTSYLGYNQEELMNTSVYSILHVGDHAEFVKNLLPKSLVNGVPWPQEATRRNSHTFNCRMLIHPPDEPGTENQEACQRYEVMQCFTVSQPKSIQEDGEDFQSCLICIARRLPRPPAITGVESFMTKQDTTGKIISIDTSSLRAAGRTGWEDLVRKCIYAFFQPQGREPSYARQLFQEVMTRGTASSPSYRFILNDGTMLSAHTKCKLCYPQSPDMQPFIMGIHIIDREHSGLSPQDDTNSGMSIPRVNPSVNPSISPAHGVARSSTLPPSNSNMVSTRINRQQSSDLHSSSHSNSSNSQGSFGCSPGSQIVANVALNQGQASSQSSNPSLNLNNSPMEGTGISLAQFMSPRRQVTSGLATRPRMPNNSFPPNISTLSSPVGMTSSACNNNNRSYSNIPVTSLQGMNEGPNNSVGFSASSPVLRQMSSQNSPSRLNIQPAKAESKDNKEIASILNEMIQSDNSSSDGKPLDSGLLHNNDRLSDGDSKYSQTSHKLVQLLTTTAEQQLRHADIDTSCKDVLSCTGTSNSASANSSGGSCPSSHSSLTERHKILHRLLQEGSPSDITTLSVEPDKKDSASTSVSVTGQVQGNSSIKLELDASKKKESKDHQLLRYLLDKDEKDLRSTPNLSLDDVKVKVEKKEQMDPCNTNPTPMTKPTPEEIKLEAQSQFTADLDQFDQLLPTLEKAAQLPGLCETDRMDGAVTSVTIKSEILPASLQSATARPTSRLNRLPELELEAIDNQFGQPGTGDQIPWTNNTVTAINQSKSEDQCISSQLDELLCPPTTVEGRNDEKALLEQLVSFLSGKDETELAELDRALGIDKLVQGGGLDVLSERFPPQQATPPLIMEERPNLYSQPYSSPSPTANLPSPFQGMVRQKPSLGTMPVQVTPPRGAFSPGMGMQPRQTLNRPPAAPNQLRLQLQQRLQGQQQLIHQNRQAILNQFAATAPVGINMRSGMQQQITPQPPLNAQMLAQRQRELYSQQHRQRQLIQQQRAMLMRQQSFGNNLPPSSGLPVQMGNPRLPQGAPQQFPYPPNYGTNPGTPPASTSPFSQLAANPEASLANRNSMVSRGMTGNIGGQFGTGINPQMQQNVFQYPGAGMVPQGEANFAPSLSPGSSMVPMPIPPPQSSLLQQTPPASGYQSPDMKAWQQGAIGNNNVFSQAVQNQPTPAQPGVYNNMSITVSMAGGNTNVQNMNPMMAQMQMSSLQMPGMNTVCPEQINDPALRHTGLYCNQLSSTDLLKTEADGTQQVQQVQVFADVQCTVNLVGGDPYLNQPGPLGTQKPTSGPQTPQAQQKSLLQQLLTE
# Sequence of Peroxisome proliferator-activated receptor gamma/Nuclear receptor coactivator 3 (P37231 whole entry): as the sequence (P37231 whole entry) above
# Sequence of Peroxisome proliferator-activated receptor gamma/Nuclear receptor coactivator 3 (Q9Y6Q9 whole entry, further chain): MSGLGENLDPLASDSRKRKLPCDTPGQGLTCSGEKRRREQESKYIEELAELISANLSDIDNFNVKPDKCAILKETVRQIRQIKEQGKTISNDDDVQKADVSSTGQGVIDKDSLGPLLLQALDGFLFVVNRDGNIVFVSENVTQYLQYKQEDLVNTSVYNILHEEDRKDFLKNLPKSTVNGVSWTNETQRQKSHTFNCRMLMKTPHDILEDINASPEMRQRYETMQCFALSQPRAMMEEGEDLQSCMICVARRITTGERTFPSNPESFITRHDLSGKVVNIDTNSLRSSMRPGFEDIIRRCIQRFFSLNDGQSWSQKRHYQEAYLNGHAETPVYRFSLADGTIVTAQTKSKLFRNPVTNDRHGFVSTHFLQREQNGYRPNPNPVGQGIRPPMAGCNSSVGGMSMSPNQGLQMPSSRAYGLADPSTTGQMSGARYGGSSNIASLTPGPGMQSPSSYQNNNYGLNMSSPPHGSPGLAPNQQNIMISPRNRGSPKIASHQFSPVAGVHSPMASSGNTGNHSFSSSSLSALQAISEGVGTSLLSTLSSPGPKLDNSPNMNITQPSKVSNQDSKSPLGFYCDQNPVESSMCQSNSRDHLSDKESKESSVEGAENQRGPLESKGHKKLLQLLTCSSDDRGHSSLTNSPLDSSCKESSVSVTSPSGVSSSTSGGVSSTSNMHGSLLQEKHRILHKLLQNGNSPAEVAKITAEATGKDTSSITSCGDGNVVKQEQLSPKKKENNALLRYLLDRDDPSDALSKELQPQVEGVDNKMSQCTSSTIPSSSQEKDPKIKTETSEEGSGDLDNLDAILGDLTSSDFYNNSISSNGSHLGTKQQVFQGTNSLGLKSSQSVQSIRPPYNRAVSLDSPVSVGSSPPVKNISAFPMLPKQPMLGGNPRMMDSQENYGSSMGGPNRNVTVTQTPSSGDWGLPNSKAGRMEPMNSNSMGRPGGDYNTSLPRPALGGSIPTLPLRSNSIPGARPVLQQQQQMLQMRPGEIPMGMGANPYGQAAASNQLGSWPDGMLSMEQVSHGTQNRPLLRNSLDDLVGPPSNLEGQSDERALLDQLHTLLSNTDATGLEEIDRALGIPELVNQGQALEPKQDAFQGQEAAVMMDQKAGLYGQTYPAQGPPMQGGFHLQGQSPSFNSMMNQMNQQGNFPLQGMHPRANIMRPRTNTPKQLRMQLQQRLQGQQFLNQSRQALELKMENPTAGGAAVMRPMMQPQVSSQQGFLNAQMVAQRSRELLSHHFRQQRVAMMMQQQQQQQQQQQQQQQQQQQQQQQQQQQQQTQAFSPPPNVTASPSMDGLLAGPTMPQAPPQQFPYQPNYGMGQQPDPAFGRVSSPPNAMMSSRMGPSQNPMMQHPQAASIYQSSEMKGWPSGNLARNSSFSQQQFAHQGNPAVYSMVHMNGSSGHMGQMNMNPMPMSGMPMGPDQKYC
# T2 sequence (Q07820 whole entry): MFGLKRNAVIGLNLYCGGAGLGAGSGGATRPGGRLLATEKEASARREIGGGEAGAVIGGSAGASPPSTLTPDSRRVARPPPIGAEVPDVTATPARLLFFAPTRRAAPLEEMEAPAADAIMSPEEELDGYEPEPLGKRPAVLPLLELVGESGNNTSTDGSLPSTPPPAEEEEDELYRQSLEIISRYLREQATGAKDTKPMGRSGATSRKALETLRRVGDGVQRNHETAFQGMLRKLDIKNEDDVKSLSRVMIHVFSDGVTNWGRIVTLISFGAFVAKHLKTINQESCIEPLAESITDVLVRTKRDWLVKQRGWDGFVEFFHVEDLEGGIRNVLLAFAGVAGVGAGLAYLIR
structure (smiles),measurement,setting,value
Cc1c(C(=O)Nn2cnnc2)oc2ccccc12,IC50,[1],> 59.6 µM (not active)
same,IC50,[2],0.664 µM (active)
COC(=O)c1c(-c2cccc(C)c2)csc1N,EC50,[3],> 50 µM (active)
O=C(c1cc2c(s1)-c1ccccc1S(=O)(=O)C2)N1CCN(Cc2ccccc2)CC1,EC50,[3],> 50 µM (active)
Cc1cc(C)c(C#N)c(SCc2cc3c(cc2Cl)OCO3)n1,EC50,[4],> 79.4 µM (not active)
same,EC50,[5],> 79.4 µM (not active)
same,EC50,[6],> 79.4 µM (not active)
O=C(Nc1ccc([N+](=O)[O-])cc1)Nn1cnnc1,IC50,[1],> 59.6 µM (not active)
same,IC50,[2],1.03 µM (active)
COc1ccccc1C(c1cc2c(cc1O)OCO2)N1CCOCC1 (stereo unspecified),IC50,[7],35.3 µM (not active) and < 2.5 µM (not active)
NOC(=O)C1=CC(=C(c2ccc(O)c(C(=O)ON)c2)c2ccc(O)c(C(=O)ON)c2)C=CC1=O,IC50,[7],22.5 µM (not active)
O=C(COC(=O)c1sc2ccccc2c1Cl)NC1CCCCC1,EC50,[8],> 112 µM (not active)
same,EC50,[9],> 112 µM (not active)
same,EC50,[4],> 79.4 µM (not active)
same,EC50,[5],> 79.4 µM (not active)
same,EC50,[6],> 79.4 µM (not active)
COc1cc(C(=O)NC2CCCCC2)ccc1OCc1ccc(Cl)cc1Cl,CC50,[10],24.7 µM (active)
CCOC(=O)c1nn(-c2ccc(F)cc2)c2nc(Nc3ccccc3)cc(=O)n12,CC50,[10],> 40 µM (active)
O=C(O)c1ccc(-n2cccc2/C=N\NC(=O)c2cc3cc(Br)ccc3o2)cc1,IC50,[11],12.1 µM (not active)
same,AC50,[12],7.63 µM (active)
same,IC50,[13],66 µM (active)
same,IC50,[14],37.1 µM (active)
same,AC50,[15],0.801 µM (active)
same,IC50,[16],4.36 µM (active)
same,IC50,[17],> 109 µM (not active)
same,IC50,[18],1.72 µM (active)
